Here are results for 4 compounds from publication PMC3862803, “Human Breast Tumor Cells Are More Resistant to Cardiac Glycoside Toxicity Than Non-Tumorigenic Breast Cells” (PLoS ONE, 2013).

The test system of assay [1] is MDA-MB-231 cells. Description: PrestoBlue viability assay. In kind it is cell-based, human. The note with it: for IC50: Homo sapiens, MDA-MB-231, 24 h, read-out: Reduced cell viability (IC50).
Assay [2] deals with MCF10A cells. Briefly: PrestoBlue viability assay. Format: cell-based, human. The settings on record: for IC50: Homo sapiens, MCF-10A, 24 hours, mean ± SE, n>3, read-out: Reduced cell viability (IC50). The procedure: (§1) To determine cell growth curves, cells were trypsinized, counted using a Scepter Cell Counter (Millipore, Billerica, MA), plated in a 96-well plate at a density of 1,000, 3,000, 5,000, or 10,000 cells per well, and allowed to attach overnight. On day 2, growth curves were determined using the PrestoBlue Viability Assay (Life Technologies, Grand Island, NY) to ensure cell densities used for viability and proliferation assays were in linear growth phase.

In assay [3] the test system is MCF7 cells. Description: TUNEL apoptosis assay. In kind it is cell-based, human. The note with it: 6 hours.
The subject of a further assay is 184D cells. Description: PrestoBlue viability assay. The settings on record: Homo sapiens, 24 hours, mean ± SE, n>3, read-out: Reduced cell viability (IC50). Format: cell-based. The protocol: as §1
The next assay relates to 184A1 cells. Briefly: PrestoBlue viability assay. Format: cell-based. The settings on record: Homo sapiens; 184A1, 24 hours; mean ± SE, n>3; read-out: Reduced cell viability (IC50). The procedure: as §1
Assay [4] concerns MCF10CA1 cells. Briefly: PrestoBlue viability assay. Format: cell-based. The note with it: Homo sapiens; MCF10CA1, 24 hours; mean ± SE, n>3; read-out: Reduced cell viability (IC50). The procedure:
as §1

Assay [5] has as its system MDA-MB-231 cells. Description: TUNEL apoptosis assay. The settings on record: 6 hours. In kind it is cell-based, human. The protocol: (§2) As a positive control, MCF10A and MCF10CA1 cells were treated with DNaseI for 15 minutes prior to assay. Cells were fixed and permeabilized prior to Terminal deoxynucleotidyl transferase dUTP nick end labeling (TUNEL) staining of DNA fragmentation using the ApopTag Fluorescein In Situ Apoptosis Detection Kit according to manufacturer’s instructions (Millipore, Billerica, MA). Slides were covered with Vectashield Mounting Medium with DAPI (Vector Laboratories, Burlingame, CA) and sealed with a glass coverslip. Images were detected and analyzed using Zeiss LSM 5 Pascal microscope and software.

Assay [6] has as its system MCF10A cells. Briefly: TUNEL apoptosis assay. The settings on record: 6 hours. In kind it is cell-based, human. The protocol: as §2
In assay [7] the test system is MCF10CA1 cells. Description: TUNEL apoptosis assay. The settings on record: 6 hours. Format: cell-based, human. The procedure:
as §2

The target in a further assay is T1, Na,K-ATPase (Homo sapiens, UniProt P05023).
T1 construct: The Na,K-ATPase activity in total membranes isolated from non-tumorous 184D, 184A, and MCF10A (10A) cells; endogenous in cells; host or cells: total membranes of MCF10A, 184D, 184A1, MCF10CA1, MCF7 and MDA-MB-231 human breast cells
Description: biochemical. In kind it is biochemical. The note with it: for IC50: mean ± SE, n>3, read-out: IC50 for CTS inhibition of ATPase activity.

Assay [8] relates to MCF7 cells. Briefly: BrdU cell proliferation assay. The note with it: 500 nM ouabain for 24 hours. Format: cell-based, human. The protocol: BrdU label was added to cells in fresh culture medium with or without ouabain for two hours according to manufacturer’s recommendations. BrdU incorporation into the DNA of proliferating cells was detected using an anti-BrdU primary antibody and Peroxidase Goat Anti-mouse secondary antibody. Fluorescence was quantified using a FLUOStar Omega microplate reader (BMG Labtech).

Assay [9] deals with MCF10CA1 cells. Briefly: BrdU cell proliferation assay. In kind it is cell-based, human.
For assay [10], the system named is MCF10A cells. Description: BrdU cell proliferation assay. The note with it: 500 nM ouabain for 2 hours, P<0.001. In kind it is cell-based, human.
Assay [11] relates to MDA-MB-231 cells. Description: BrdU cell proliferation assay. In kind it is cell-based, human.
The subject of another assay is p-ERK1/2. Briefly: Western blot of cell lysates for p-ERK1/2. The note with it: for p-ERK levels in lysates (western blot): 50 nM or 500 nM ouabain for 24 hours; for p-ERK1/2 levels in lysates (western blot): 500 nM ouabain. In kind it is cell-based, human. For orientation: In western blotting, separated proteins are transferred to a membrane and probed.
In another assay the test system is prostate cancer. The settings on record: digoxin use, large prospective cohort study; cited from earlier work.
The mark [12] stands for this setting: 24 hour ouabain at high concentrations (500 nM).

Read-outs that look alike come from different tables or passages of the source. Where only a bound is given, the exact number is not on record here.

Description for Na,K-ATPase: Total membranes (TM) were prepared from cells as previously described [37] and resuspended in cold homogenizing buffer (10 mM Tris-HCl, 2 mM EDTA, 250 mM sucrose, pH 7.4) containing Complete-Mini Protease Inhibitor Cocktail Tablets (Roche, Indianapolis, IN).
The ATPase activity assay of isolated TM from cells was performed for 30 min at 37°C as previously described [38].
Description for p-ERK1/2: Total cell lysate preparations were made by incubating cell pellets in lysis buffer (150 mM NaCl, 50 mM Tris, 1% CHAPS, pH 7.4) for 30 minutes at 4°C. Lysates were cleared at 15,000 x g for 10 minutes and the soluble protein supernatant was collected for analysis. Protein concentrations were determined using the Coomassie Protein Assay Kit (Pierce, Rockford, IL).
Protein samples were subject to western blot analysis according to previously described procedures [39]. Transferred proteins were blocked using either 5% dried milk, 0.1% Tween-20 in phosphate-buffered saline or 5% bovine serum albumin, 0.1% Tween-20 in Tris-buffered saline. PVDF membranes were sequentially probed with primary antibodies and horseradish peroxidase-conjugated secondary antibodies according to manufacturer’s recommendations. Luminata Forte Western HRP Substrate (Millipore, Billerica, MA) was used for peroxidase detection and the resulting signal intensity was quantified on a BioRad Chemidoc XRS using Quantity One Version 4.6.2 software. When appropriate, signal intensity from anti-actin antibody was used as a protein loading control.

Regarding `C[C@]12CC[C@H](O)C[C@H]1CC[C@@H]1[C@@H]2CC[C@]2(C)[C@@H](c3ccc(=O)oc3)CC[C@]12O` [Bufalin, bufalin], the IC50 with MDA-MB-231 cells [1] was 0.9364 ± 0.0049 µM; in the assay with MCF10A cells [2], 0.465 ± 0.0259 µM; in the assay with 184D cells it was 0.329 ± 0.0112 µM; in the assay on 184A1 cells, 0.319 ± 0.0061 µM; in the assay with MCF10CA1 cells [4], 0.635 ± 0.172 µM. Also, the “Cells exhibiting DNA fragmentation (TUNEL), a marker for apoptosis” value is less than 5% in the assay on MCF7 cells [3] (50 nM bufalin), less than 5% in the assay with MDA-MB-231 cells [5] (50 nM bufalin), “Over 90%” in the assay on MCF10A cells [6] (50 nM bufalin) and less than 5% with MCF10CA1 cells [7] (50 nM bufalin).
In the case of `C[C@H]1O[C@@H](O[C@H]2[C@@H](O)C[C@H](O[C@H]3[C@@H](O)C[C@H](O[C@H]4CC[C@@]5(C)[C@H](CC[C@@H]6[C@@H]5CC[C@]5(C)[C@@H](C7=CC(=O)OC7)CC[C@]65O)C4)O[C@@H]3C)O[C@@H]2C)C[C@H](O)[C@@H]1O` [Digitoxin, digitoxin], the IC50 in the assay on MDA-MB-231 cells [1] was 3.68 ± 0.15 µM; in the assay on MCF10A cells [2] it was 1.57 ± 0.191 µM; on Na,K-ATPase (total membranes of 184A1 cells) it was 1.83 ± 0.0887 µM; at Na,K-ATPase (total membranes of 184D cells), 2.07 ± 0.307 µM; on Na,K-ATPase (total membranes of MCF7 cells), 1.16 ± 0.0427 µM; at Na,K-ATPase (total membranes of MCF10A cells), 1.35 ± 0.0852 µM. Besides, the 50% inhibitory concentration (IC50) at Na,K-ATPase (total membranes of MCF10CA1 cells) was 1.48 ± 0.0738 µM; on Na,K-ATPase (total membranes of MDAMB231 cells), 1.18 ± 0.155 µM; in the assay on 184D cells, 1.27 ± 0.0654 µM; with 184A1 cells it was 1.44 ± 0.0293 µM; in the assay with MCF10CA1 cells [4], 3.68 ± 0.0895 µM.
`C[C@@H]1O[C@@H](O[C@H]2C[C@@H](O)[C@]3(CO)[C@H]4[C@H](O)C[C@]5(C)[C@@H](C6=CC(=O)OC6)CC[C@]5(O)[C@@H]4CC[C@]3(O)C2)[C@H](O)[C@H](O)[C@H]1O` [Ouabain, ouabain]: the “Proliferation (BrdU incorporation)” value in the assay with MCF7 cells [8] is recorded as “no change to proliferation”; in the assay on MCF10CA1 cells [9] (setting [12]), “slight decrease in proliferation”; in the assay with MCF10CA1 cells [9] (short-term (2 hours) ouabain), “not affected”; with MCF10A cells [10], “decrease in proliferation”; in the assay on MDA-MB-231 cells [11] (setting [12]), “slight decrease in proliferation”; in the assay with MDA-MB-231 cells [11] (short-term (2 hours) ouabain), “not affected”. For the same compound, the “Cell viability at varied serum concentration” value is on record as “not affected” in the assay with MDA-MB-231 cells [1] (MDA-MB-231, 0-10% serum, 500 nM ouabain for 24 hours) and “increased ouabain sensitivity” in the assay with MCF10A cells [2] (reduced serum (0-10% serum), 500 nM ouabain for 24 hours). Besides, the “Cell viability over treatment duration” value with MCF10A cells [2] (500 nM ouabain, after 2 days (0 to 48 hours)) is on record as “nearly all of the MCF10A cells have died”. Also, the IC50 in the assay on MCF10A cells [2] came out at 2.17 ± 0.192 µM; with 184D cells it was 1.35 ± 0.155 µM; in the assay with 184A1 cells it was 1.49 ± 0.0453 µM; in the assay with MCF10CA1 cells [4], 2.67 ± 0.574 µM. For the same compound, the “ATPase inhibition at varied serum level” value at Na,K-ATPase (MCF10A isolated membranes, 0-10% serum, 500 nM ouabain, p > 0.05) was “No significant difference in ATPase inhibition”. In addition, the “Cells exhibiting DNA fragmentation (TUNEL), a marker for apoptosis” value in the assay with MCF7 cells [3] (500 nM ouabain) was less than 5%; in the assay with MDA-MB-231 cells [5] (500 nM ouabain), less than 5%; in the assay with MCF10A cells [6] (500 nM ouabain), “Over 90%”; with MCF10CA1 cells [7] (500 nM ouabain) it was less than 5%. Also, the “p-ERK levels in lysates (western blot)” value in the assay with p-ERK1/2 (A2780CP (cisplatin resistant) cells) and in the assay with p-ERK1/2 (A2780 cells) was “increased levels of p-ERK” in each case. Further, the “p-ERK1/2 levels in lysates (western blot)” value is given as “did not contain detectable levels of activated p-ERK1/2” in the assay with p-ERK1/2 (MCF10A, 24 hours (any treatment condition)); “elevated p-ERK1/2 levels” with p-ERK1/2 (MCF10CA1, 24 hours); “elevated p-ERK1/2 levels” with p-ERK1/2 (MDA-MB-231, 24 hours).
Take `C[C@H]1O[C@@H](O[C@H]2[C@@H](O)C[C@H](O[C@H]3[C@@H](O)C[C@H](O[C@H]4CC[C@@]5(C)[C@H](CC[C@@H]6[C@@H]5C[C@@H](O)[C@]5(C)[C@@H](C7=CC(=O)OC7)CC[C@]65O)C4)O[C@@H]3C)O[C@@H]2C)C[C@H](O)[C@@H]1O` [digoxin]: in the assay with prostate cancer, the “Prevention of prostate cancer” value is reported as not above 25%.

As a reminder, the IC50 is the concentration at which inhibition is half-maximal.
